Measured values taken from patent US9187454B2, “Inhibitors of kinases and cancer stem cells, and methods of preparation and use thereof” (Boston Biomedical, Inc., priority 2013, dated 2015).
pIC50: −log10 of the molar value.

Key:
Format in all cases: cell-based
[1] = tested on: FaDu CSC; assay: Cancer stem cell sphere culture viability, CellTiter-Glo, FaDu CSC; conditions: CSC cultures, viability 72 hours after drug treatment
Protocol: (§1) Cancer Stem Cell (CSC) cultures were initiated from heterogenous cancer cell lines. Briefly, cancer cell cultures were trypsonized and collected in centrifuge tubes. Cells were then pelleted by centrifugation, media removed, and cells resuspended in phosphate buffered saline (PBS). Cells were then pelleted again, and the process repeated for a total of three PBS washes. Cells were subsequently resuspended in CSC media (DMEMF-12, 1×B27 supplement (Life Technologies), 0.4% BSA, 10 ng/ml EGF, 10 ng/ml FGF). Following resuspension, cells were passed through a 40 uM cell strainer to obtain a single cell suspension. Cells were then plated in 100 mm dishes coated with 0.5% Agar to prevent cell attachment. Cells were then allowed to grow for 5-7 days to allow CSC sphere formation.
(§2) CSC spheres that were a minimum of passage 2 were dissociated with Accutase and filtered through a 40 uM cell strainer before counting to remove any cell clumps. CSCs were then plated at 1000 cells per well in black-walled 96 well plates that have been coated in 0.5% Agar in 100 uL per well of CSC media. CSCs were then allowed to grow for 72 hours. CSC cultures were then treated with a dose curve of the indicated compounds in triplicate wells. CSC cultures were harvested 72 hours after drug treatment and viability determined using CellTiter-Glo assay (Promega) as directed by the manufacturer.

[2] = tested on: FaDu; assay: Bulk cancer cell viability, CellTiter-Glo, FaDu; conditions: viability 72 hours after drug treatment
Protocol: (§3) Cancer cells were plated at 5000 cells per well in black-walled 96 well plates in 100 uL per well of complete media (DMEM, 10% FBS, 1% penicillin/streptomycin). Cells were treated with each of the compounds 24 hours after plating with a dose curve of the indicated compounds in triplicate wells. Cells were harvested 72 hours after drug treatment and viability was determined using CellTiter-Glo assay (Promega) as directed by the manufacturer.

[3] = tested on: ACHN; assay: Bulk cancer cell viability, CellTiter-Glo, ACHN; conditions: viability 72 hours after drug treatment
Protocol: as §3

[4] = tested on: A549; assay: Bulk cancer cell viability, CellTiter-Glo, A549; conditions: Homo sapiens, viability 72 hours after drug treatment
Protocol: as §3

[5] = tested on: A549 CSC; assay: Cancer stem cell sphere culture viability, CellTiter-Glo, A549 CSC; conditions: Homo sapiens, CSC cultures, viability 72 hours after drug treatment
Protocol: as §1, §2

Row | SMILES | pIC50 ([1]; Homo sapiens, FaDu, 72 h) | pIC50 ([2]; Homo sapiens, FaDu, 72 h) | other results
1 | CCN(CC)CCNC(=O)c1c(C)[nH]c(/C=C2\C(=O)Nc3c2cccc3-c2csc(-c3ccccc3)n2)c1C [Compound 235] | 5.85 | 5.28 | 
2 | Cc1[nH]c(/C=C2\C(=O)Nc3c2cccc3-c2csc(-c3ccccc3)n2)c(C)c1C(=O)N1CCN(C)CC1 [Compound 236] | 5.60 | 4.95 | 
3 | CCN(CC)CCNC(=O)c1c(C)[nH]c(/C=C2\C(=O)Nc3cc(-c4ccc(-c5ccccc5)s4)ccc32)c1C [Compound 244] |  | 4.06 | 
4 | CCN(CC)CCNC(=O)c1c(C)[nH]c(/C=C2\C(=O)Nc3ccc(-c4ncc(-c5ccccc5)o4)cc32)c1C [Compound 247] |  |  | pIC50 ([3]; Homo sapiens, ACHN, 72 h): 4.20
5 | O=C1Nc2ccc(-c3csc(-c4ccccc4)n3)cc2/C1=C/c1ccc(C(=O)NCCN2CCOCC2)c(=O)[nH]1 [Compound 265] |  | 4.20 | 
6 | CCN(CC)CCNC(=O)c1c(C)[nH]c(/C=C2\C(=O)Nc3ccc(C4CCN(C5CCN(C(C)=O)CC5)CC4)cc32)c1C [Compound 272] |  | 4.65 | 
7 | CCN(CC)CCNC(=O)c1c(C)[nH]c(/C=C2\C(=O)Nc3ccc(-c4cnn(C5CCOCC5)c4)cc32)c1C [Compound 273] | 5.04 | 5.21 | pIC50 [4]: 4.56
8 | CCN(CC)CCNC(=O)c1c(C)[nH]c(/C=C2\C(=O)Nc3ccc(C4=CS/C(=C\c5ccccc5)N4C)cc32)c1C [Compound 283] | 5.66 | 5.27 | 
9 | CCN(CC)CCNC(=O)c1c(C)[nH]c(/C=C2\C(=O)Nc3ccc(-c4cn(-c5ccccc5)nc4C)cc32)c1C [Compound 287] |  |  | pIC50 [1]: 5.88; pIC50 [2]: 5.24
10 | CCN(CC)CCNC(=O)c1c(C)[nH]c(/C=C2\C(=O)Nc3ccc(-c4ccc(-c5cccnc5)s4)cc32)c1C [Compound 298] | 4.39 | 4.84 | 
11 | CCN(CC)CCNC(=O)c1c(C)[nH]c(/C=C2\C(=O)Nc3ccc(-c4nnc(-c5ccccc5)s4)cc32)c1C [Compound 303] |  |  | pIC50 [1]: 4.90; pIC50 [3]: 5.25; pIC50 [2]: 5.10

Further lines, with some results ahead:

Row | pIC50 ([1]; Homo sapiens, FaDu, 72 h) | pIC50 ([2]; Homo sapiens, FaDu, 72 h) | SMILES | other results
12 | 6.18 | 5.30 | CCN(CC)CCNC(=O)c1c(C)[nH]c(/C=C2\C(=O)Nc3cc(-c4csc(-c5ccccc5)n4)ccc32)c1C [Compound 233] | 
13 |  | 5.20 | Cc1[nH]c(/C=C2\C(=O)Nc3cc(-c4csc(-c5ccccc5)n4)ccc32)c(C)c1C(=O)N1CCN(C)CC1 [Compound 234] | 
14 |  | 4.85 | CCN(CC)CCNC(=O)c1c(C)[nH]c(/C=C2\C(=O)Nc3ccc(-c4nnc(-c5ccccc5)s4)cc32)c1C [Compound 250] | pIC50 [3]: 4.08
15 | 6.19 | 5.82 | CCN(CC)CCNC(=O)c1c(C)[nH]c(/C=C2\C(=O)Nc3ccc(-c4csc(-c5ccccc5)n4)nc32)c1C [Compound 261] | pIC50 [4]: 5.95; pIC50 ([3]; Homo sapiens, ACHN, 72 h): 5.76
16 | 5.96 | 5.44 | Cc1[nH]c(/C=C2\C(=O)Nc3ccc(-c4csc(-c5ccccc5)n4)nc32)c(C)c1C(=O)NCCN1CCCC1 [Compound 262] | pIC50 [5]: 5.70; pIC50 [4]: 5.50; pIC50 ([3]; Homo sapiens, ACHN, 72 h): 5.55
17 | 5.09 | 5.62 | CCN(CC)CCNC(=O)c1ccc(/C=C2\C(=O)Nc3ccc(-c4csc(-c5ccccc5)n4)cc32)[nH]c1=O [Compound 263] | 
18 |  | 4.00 | CN1CCN(C(=O)c2ccc(/C=C3\C(=O)Nc4ccc(-c5csc(-c6ccccc6)n5)cc43)[nH]c2=O)CC1 [Compound 264] | 
19 |  | 4.19 | Cc1[nH]c(/C=C2\C(=O)Nc3cc(-c4csc(-c5ccccc5)n4)ccc32)c(C)c1C(=O)N1CCOCC1 [Compound 268] | 
20 |  | 4.19 | Cc1[nH]c(/C=C2\C(=O)Nc3ccc(-c4csc(-c5ccncc5)n4)cc32)c(C)c1CCC(=O)O [Compound 348] | 
21 |  | 4.17 | O=C1Nc2ccc(-c3csc(-c4ccncc4)n3)cc2/C1=C/c1cc2ccccc2[nH]1 [Compound 352] | 
22 |  | 4.25 | Cc1cc(C(=O)NCCO)[nH]c1/C=C1\C(=O)Nc2ccc(-c3csc(-c4ccccc4)n3)cc21 [Compound 370] | 
